According to US11000033B2, “Ketone or oxime compound, and herbicide” (NISSAN CHEMICAL CORPORATION, priority 2014, dated 2021):

Legend:
Format in all cases: in vivo
[1] = test system: Echinochloa oryzacola Vasing.; assay: Test Example 1: herbicidal activity, application before weed generation in submerged conditions (symbol A); conditions: application herbicide amount 320 g/ha
Method in brief: (§1)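 Weeds are sown into submerged alluvial soil alongside transplanted 2.5-leaf rice, and the compound, as an emulsion diluted to a set rate, is applied onto the water before emergence. Rating on the 0–5 herbicidal-ratio scale follows 3 weeks of greenhouse growth at 25–30 °C.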

[2] = test system: Scirpus juncoides; assay: Test Example 1: herbicidal activity, application before weed generation in submerged conditions (symbol B); conditions: application herbicide amount 320 g/ha
Method in brief: as §1

[3] = test system: Monochoria vaginalis; assay: Test Example 1: herbicidal activity, application before weed generation in submerged conditions (symbol C); conditions: application herbicide amount 320 g/ha
Method in brief: as §1

[4] = test system: transplanted rice plant; assay: Test Example 1: effect on crop, application before weed generation in submerged conditions (symbol a); conditions: application herbicide amount 320 g/ha
Method in brief: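 Alluvial soil pots flooded to 4 cm water, sown with Echinochloa oryzacola, Scirpus juncoides and Monochoria vaginalis, then transplanted with 2.5 leaf stage rice seedlings; pre-emergence application. Greenhouse 25° C. to 30° C.; scored 0–5 by herbicidal ratio 3 weeks after application.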

[5] = test system: Echinochloa oryzacola Vasing.; assay: Test Example 2: herbicidal activity, application during weed generation in submerged conditions (symbol A); conditions: Table 23; application herbicide amount 320 g/ha; grade 0-5 by criteria of Test Example 1
Experimental: (§2) Herbicidal Activity Test by Application During Weed Generation in Submerged Conditions
(§3) After alluvial soil was placed into 1/10000 are of Wagner pot, water was poured and mixed to form a submerged condition having a water depth of 4 cm. Seeds of Echinochloa oryzacola Vasing., Scirpus juncoides, and Monochoria vaginalis were sowed in a mixed manner in the above pot and the pot was placed in the greenhouse of 25° C. to 30° C. to grow the plants. When Echinochloa oryzacola Vasing., Scirpus juncoides, and Monochoria vaginalis were grown to one leaf stage to two leaf stage, the emulsion agent of the compound of the present invention prepared in accordance with Formulation Example 2 was diluted with water so as to be a predetermined herbicide amount and the diluted emulsion agent was applied to the surface of the water. 3 weeks later from the herbicide application, the effect to each plant was investigated in accordance with the criteria of Test Example 1.

[6] = test system: Scirpus juncoides; assay: Test Example 2: herbicidal activity, application during weed generation in submerged conditions (symbol B); conditions: Table 23; application herbicide amount 320 g/ha; grade 0-5 by criteria of Test Example 1
Experimental: as §2, §3

[7] = test system: Monochoria vaginalis; assay: Test Example 2: herbicidal activity, application during weed generation in submerged conditions (symbol C); conditions: Table 23; application herbicide amount 320 g/ha; grade 0-5 by criteria of Test Example 1
Experimental: as §2, §3

[8] = test system: Digitaria ciliaris; assay: Test Example 5: herbicidal effect by foliage application, plastic box (symbol F); conditions: 320 g/ha, 3 weeks after application
Method in brief: (§4)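 Sowing in sterilized diluvial soil, 14 days' greenhouse growth at 25° C. to 30° C., then uniform small-sprayer foliar application of aqueous emulsion dilution; plants scored three weeks afterwards.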

[9] = test system: Setaria viridis; assay: Test Example 5: herbicidal effect by foliage application, plastic box (symbol G); conditions: 320 g/ha, 3 weeks after application
Method in brief: as §4

[10] = test system: Echinochloa crus-galli var. crus-galli; assay: Test Example 5: herbicidal effect by foliage application, plastic box (symbol H); conditions: 320 g/ha, 3 weeks after application
Method in brief: as §4

[11] = test system: Avena fatua; assay: Test Example 5: herbicidal effect by foliage application, plastic box (symbol I); conditions: 320 g/ha, 3 weeks after application
Method in brief: as §4

[12] = test system: Alopecurus myosuroides; assay: Test Example 5: herbicidal effect by foliage application, plastic box (symbol J); conditions: 320 g/ha, 3 weeks after application
Method in brief: as §4

[13] = test system: Lolium multiflorum Lam.; assay: Test Example 5: herbicidal effect by foliage application, plastic box (symbol K); conditions: 320 g/ha, 3 weeks after application
Method in brief: as §4

[14] = test system: Apera spica-venti; assay: Test Example 5: herbicidal effect by foliage application, plastic box (symbol L); conditions: 320 g/ha, 3 weeks after application
Method in brief: as §4

[15] = test system: Abutilon theophrasti; assay: Test Example 5: herbicidal effect by foliage application, plastic box (symbol M); conditions: 320 g/ha, 3 weeks after application
Method in brief: as §4

[16] = test system: Amaranthus retroflexus; assay: Test Example 5: herbicidal effect by foliage application, plastic box (symbol N); conditions: 320 g/ha, 3 weeks after application
Method in brief: as §4

[17] = test system: Chenopodium album; assay: Test Example 5: herbicidal effect by foliage application, plastic box (symbol O); conditions: 320 g/ha, 3 weeks after application
Method in brief: as §4

[18] = test system: Stellaria media; assay: Test Example 5: herbicidal effect by foliage application, plastic box (symbol P); conditions: 320 g/ha, 3 weeks after application
Method in brief: as §4

[19] = test system: Galium spurium; assay: Test Example 5: herbicidal effect by foliage application, plastic box (symbol Q); conditions: 320 g/ha, 3 weeks after application
Method in brief: as §4

[20] = test system: Veronica persica; assay: Test Example 5: herbicidal effect by foliage application, plastic box (symbol R); conditions: 320 g/ha, 3 weeks after application
Method in brief: as §4

[21] = test system: corn; assay: Test Example 5: effect on crop by foliage application, plastic box (symbol c); conditions: 320 g/ha, 3 weeks after application
Method in brief: (§5)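 Foliage-application test plants come from spot sowing in sterilized diluvial soil under a soil layer of about 1.5 cm, grown at 25° C. to 30° C. in a greenhouse.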

[22] = test system: soybean; assay: Test Example 5: effect on crop by foliage application, plastic box (symbol d); conditions: 320 g/ha, 3 weeks after application
Method in brief: as §5

[23] = test system: rice plant; assay: Test Example 5: effect on crop by foliage application, plastic box (symbol b); conditions: 320 g/ha, 3 weeks after application
Method in brief: as §5

[24] = test system: wheat; assay: Test Example 5: effect on crop by foliage application, plastic box (symbol e); conditions: 320 g/ha, 3 weeks after application
Method in brief: as §5

[25] = test system: beet; assay: Test Example 5: effect on crop by foliage application, plastic box (symbol f); conditions: 320 g/ha, 3 weeks after application
Method in brief: as §5

[26] = test system: rapeseed; assay: Test Example 5: effect on crop by foliage application, plastic box (symbol g); conditions: 320 g/ha, 3 weeks after application
Method in brief: as §5

[27] = test system: Echinochloa crus-galli var. crus-galli; assay: Test Example 3: herbicidal effect by foliage application, Wagner pot (symbol H); conditions: application herbicide amount 320 g/ha
Method in brief: (§6)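 In a shallow-flooded alluvial soil system held at 25–30 °C, plants including rice grew for 14 days and were then sprayed over the foliage with emulsion diluted to a fixed herbicide amount. Visual rating followed at 3 weeks.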

[28] = test system: Leptochloa chinensis; assay: Test Example 3: herbicidal effect by foliage application, Wagner pot (symbol D); conditions: application herbicide amount 320 g/ha
Method in brief: as §6

[29] = test system: Cyperus difformis; assay: Test Example 3: herbicidal effect by foliage application, Wagner pot (symbol E); conditions: application herbicide amount 320 g/ha
Method in brief: as §6

[30] = test system: directly sowed rice plant; assay: Test Example 3: effect on crop by foliage application, Wagner pot (symbol b); conditions: application herbicide amount 320 g/ha
Method in brief: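 Steps: fill a 1/10000-are Wagner pot with alluvial soil; add water and mix to submerge at 0.1–0.5 cm depth; sow rice plus Echinochloa crus-galli var. crus-galli, Leptochloa chinensis and Cyperus difformis; grow in a 25–30 °C greenhouse.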

## CC(CC1CC(O)=C(c2c(C)cc(C)cc2C)C1=O)=NOCc1c(F)cccc1Cl (centres unmarked) [1-115]
[1]
  Herbicidal effect grade, A: Echinochloa oryzacola Vasing.: 5 (Herbicidal ratio of 90% or more (almost completely withered))
[2]
  Herbicidal effect grade, B: Scirpus juncoides: 3 (Herbicidal ratio of 40% or higher and lower than 70%)
[3]
  Herbicidal effect grade, C: Monochoria vaginalis: 4 (Herbicidal ratio of 70% or higher and lower than 90%)
[4]
  Effect grade on crop, a: transplanted rice plant: 1 (Herbicidal ratio of 5% or higher and lower than 20%)
[5]
  Herbicidal effect grade, A: Echinochloa oryzacola Vasing.: 3 (Herbicidal ratio of 40% or higher and lower than 70%)
[6]
  Herbicidal effect grade, B: Scirpus juncoides: 2 (Herbicidal ratio of 20% or higher and lower than 40%)
[7]
  Herbicidal effect grade, C: Monochoria vaginalis: 0 (Herbicidal ratio of 5% or lower (almost no effect))
[8]
  F: Digitaria ciliaris, herbicidal effect (criteria 0-5): 2 (Herbicidal ratio of 20% or higher and lower than 40%)
[9]
  G: Setaria viridis, herbicidal effect (criteria 0-5): 1 (Herbicidal ratio of 5% or higher and lower than 20%)
[10]
  H: Echinochloa crus-galli var. crus-galli, herbicidal effect (criteria 0-5): 1 (Herbicidal ratio of 5% or higher and lower than 20%)
[11]
  I: Avena fatua, herbicidal effect (criteria 0-5): 2 (Herbicidal ratio of 20% or higher and lower than 40%)
[12]
  J: Alopecurus myosuroides, herbicidal effect (criteria 0-5): 3 (Herbicidal ratio of 40% or higher and lower than 70%)
[13]
  K: Lolium multiflorum Lam., herbicidal effect (criteria 0-5): 3 (Herbicidal ratio of 40% or higher and lower than 70%)
[14]
  L: Apera spica-venti, herbicidal effect (criteria 0-5): 4 (Herbicidal ratio of 70% or higher and lower than 90%)
[15]
  M: Abutilon theophrasti, herbicidal effect (criteria 0-5): 0 (Herbicidal ratio of 5% or lower (almost no effect))
[16]
  N: Amaranthus retroflexus, herbicidal effect (criteria 0-5): 0 (Herbicidal ratio of 5% or lower (almost no effect))
[17]
  O: Chenopodium album, herbicidal effect (criteria 0-5): 0 (Herbicidal ratio of 5% or lower (almost no effect))
[18]
  P: Stellaria media, herbicidal effect (criteria 0-5): 1 (Herbicidal ratio of 5% or higher and lower than 20%)
[19]
  Q: Galium spurium, herbicidal effect (criteria 0-5): 0 (Herbicidal ratio of 5% or lower (almost no effect))
[20]
  R: Veronica persica, herbicidal effect (criteria 0-5): 1 (Herbicidal ratio of 5% or higher and lower than 20%)
[21]
  c: corn, effect on crop (criteria 0-5): 0 (Herbicidal ratio of 5% or lower (almost no effect))
[22]
  d: soybean, effect on crop (criteria 0-5): 0 (Herbicidal ratio of 5% or lower (almost no effect))
[23]
  b: directly sowed rice plant, effect on crop (criteria 0-5): 1 (Herbicidal ratio of 5% or higher and lower than 20%)
[24]
  e: wheat, effect on crop (criteria 0-5): 0 (Herbicidal ratio of 5% or lower (almost no effect))
[25]
  f: beet, effect on crop (criteria 0-5): 0 (Herbicidal ratio of 5% or lower (almost no effect))
[26]
  g: rapeseed, effect on crop (criteria 0-5): 5 (Herbicidal ratio of 90% or more (almost completely withered))

## CCCC=Cc1cc(C)c(C2=C(O)CC(CC(C)=O)C2=O)c(C)c1 (centres unmarked) [7-022]
[1]
  Herbicidal effect grade, A: Echinochloa oryzacola Vasing.: 4 (Herbicidal ratio of 70% or higher and lower than 90%)
[2]
  Herbicidal effect grade, B: Scirpus juncoides: 2 (Herbicidal ratio of 20% or higher and lower than 40%)
[3]
  Herbicidal effect grade, C: Monochoria vaginalis: 3 (Herbicidal ratio of 40% or higher and lower than 70%)
[4]
  Effect grade on crop, a: transplanted rice plant: 3 (Herbicidal ratio of 40% or higher and lower than 70%)
[27]
  herbicidal effect on H (Echinochloa crus-galli var. crus-galli), grade 0-5: 0 (Herbicidal ratio of 5% or lower (almost no effect))
[28]
  herbicidal effect on D (Leptochloa chinensis), grade 0-5: 4 (Herbicidal ratio of 70% or higher and lower than 90%)
[29]
  herbicidal effect on E, grade 0-5: 0 (Herbicidal ratio of 5% or lower (almost no effect))
[30]
  effect on crop b (directly sowed rice plant), grade 0-5: 0 (Herbicidal ratio of 5% or lower (almost no effect))
[8]
  F: Digitaria ciliaris, herbicidal effect (criteria of Test Example 1): 0 (Herbicidal ratio of 5% or lower (almost no effect))
[9]
  G: Setaria viridis, herbicidal effect (criteria of Test Example 1): 0 (Herbicidal ratio of 5% or lower (almost no effect))
[10]
  H: Echinochloa crus-galli var. crus-galli, herbicidal effect (criteria of Test Example 1): 1 (Herbicidal ratio of 5% or higher and lower than 20%)
[11]
  I: Avena fatua, herbicidal effect (criteria of Test Example 1): 0 (Herbicidal ratio of 5% or lower (almost no effect))
[12]
  J: Alopecurus myosuroides, herbicidal effect (criteria of Test Example 1): 0 (Herbicidal ratio of 5% or lower (almost no effect))
[13]
  K: Lolium multiflorum Lam., herbicidal effect (criteria of Test Example 1): 2 (Herbicidal ratio of 20% or higher and lower than 40%)
[14]
  L: Apera spica-venti, herbicidal effect (criteria of Test Example 1): 0 (Herbicidal ratio of 5% or lower (almost no effect))
[15]
  M: Abutilon theophrasti, herbicidal effect (criteria of Test Example 1): 0 (Herbicidal ratio of 5% or lower (almost no effect))
[16]
  N: Amaranthus retroflexus, herbicidal effect (criteria of Test Example 1): 0 (Herbicidal ratio of 5% or lower (almost no effect))
[17]
  O: Chenopodium album, herbicidal effect (criteria of Test Example 1): 0 (Herbicidal ratio of 5% or lower (almost no effect))
[18]
  P: Stellaria media, herbicidal effect (criteria of Test Example 1): 0 (Herbicidal ratio of 5% or lower (almost no effect))
[19]
  Q: Galium spurium, herbicidal effect (criteria of Test Example 1): 0 (Herbicidal ratio of 5% or lower (almost no effect))
[20]
  R: Veronica persica, herbicidal effect (criteria of Test Example 1): 0 (Herbicidal ratio of 5% or lower (almost no effect))
[21]
  c: corn, effect on crop (criteria of Test Example 1): 0 (Herbicidal ratio of 5% or lower (almost no effect))
[22]
  d: soybean, effect on crop (criteria of Test Example 1): 0 (Herbicidal ratio of 5% or lower (almost no effect))
[23]
  b: directly sowed rice plant, effect on crop (criteria of Test Example 1): 0 (Herbicidal ratio of 5% or lower (almost no effect))
[24]
  e: wheat, effect on crop (criteria of Test Example 1): 0 (Herbicidal ratio of 5% or lower (almost no effect))
[25]
  f: beet, effect on crop (criteria of Test Example 1): 0 (Herbicidal ratio of 5% or lower (almost no effect))
[26]
  g: rapeseed, effect on crop (criteria of Test Example 1): 0 (Herbicidal ratio of 5% or lower (almost no effect))
